# Laboratory results as given in US9987266B2, “Alkyl-amide-substituted pyridyl compounds useful as modulators of IL-12, IL-23 and/or IFNα responses” (BRISTOL-MYERS SQUIBB COMPANY, priority 2013, dated 2018).
# Like-named read-outs stand apart in the source and are kept apart here.
# How the values were obtained:
# [1] = system: Kit225 T cells with STAT-dependent luciferase reporter stimulated with human recombinant IFNα; assay: Kit225 T cell assay, IFNα stimulated STAT-dependent luciferase reporter; assay type: cell-based
# Protocol: (§1) Kit225 T cells with a stably-integrated STAT-dependent luciferase reporter were plated in RPMI (Gibco) containing 10% heat-inactivated FBS (Gibco) and 100 U/mL PenStrep (Gibco). The cells were then stimulated with either 20 ng/mL human recombinant IL-23 or 200 U/mL human recombinant IFNα (PBL InterferonSource) for 5-6 hours. Luciferase expression was measured using the STEADY-GLO® Luciferase Assay System (Promega) according to the manufacturer's instructions.
# [2] = system: Kit225 T cells with STAT-dependent luciferase reporter stimulated with human recombinant IL-23; assay: Kit225 T cell assay, IL-23 stimulated STAT-dependent luciferase reporter; assay type: cell-based
# Protocol: as §1
# [3] = molecular target: T1, recombinantly expressed His-tagged protein corresponding to amino acids 575-869 of human Tyk2 (Homo sapiens, UniProt P29597); assay: Probe displacement assay (scintillation proximity, radiolabeled probe); assay type: binding; settings: 2.5 nM Tyk2 (575-869), 40 nM [3H] probe, 30 minutes at room temperature
# T1 construct: made in house
# Protocol: The preparation of radiolabeled probe, (R)—N-(1-(3-(8-methyl-5-(methylamino)-8H-imidazo[4,5-d]thiazolo[5,4-b]pyridin-2-yl)phenyl)ethyl)-2-([^3H]methylsulfonyl)benzamide, was performed as described below: […]
# [4] = KIT225, 200 U/mL human recombinant IFNα, 5-6 hours, luciferase, read-out: IFNa Kit225 Reporter, LE (IC50)
# [5] = KIT225, 20 ng/mL human recombinant IL-23, 5-6 hours, luciferase, read-out: IL-23 Kit225 Reporter, LE (IC50)
# [6] = Homo sapiens, KIT225, read-out: IFNa Kit225 Reporter, LE (IC50, μM)
# [7] = Homo sapiens, KIT225, read-out: IL-23 Kit225 Reporter, LE (IC50, μM)
# T1 sequence (P29597 with tags, fused parts or gaps): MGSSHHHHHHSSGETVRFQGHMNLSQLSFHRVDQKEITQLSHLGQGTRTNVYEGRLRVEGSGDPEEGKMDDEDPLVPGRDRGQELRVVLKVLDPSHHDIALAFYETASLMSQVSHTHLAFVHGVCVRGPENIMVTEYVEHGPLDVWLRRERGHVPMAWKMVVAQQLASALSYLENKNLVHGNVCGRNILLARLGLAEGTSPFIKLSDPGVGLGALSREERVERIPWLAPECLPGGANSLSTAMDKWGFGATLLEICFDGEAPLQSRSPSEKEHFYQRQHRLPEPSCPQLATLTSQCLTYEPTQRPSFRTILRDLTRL
SMILES,"IC50 [1, 4] [µM]","IC50 [2, 5] [µM]",EC50 [3] [nM],"IC50 [1, 6] [µM]","IC50 [2, 7] [µM]"
[2H]C([2H])([2H])NC(=O)c1cnc(NC(=O)C2CC2)cc1Nc1cccc(-c2ncc(F)cn2)c1OC [Example 46],0.013,0.022,,,
[2H]C([2H])([2H])NC(=O)c1cnc(NC(=O)C2CC2)cc1Nc1cccc(-c2nnn(C)n2)c1OC [Example 44],0.00117,0.00229,,,
CNC(=O)c1cnc(NC(=O)C2CC2)cc1Nc1cc(F)ccc1S(C)(=O)=O [Example 20],1.2,1.44,150,,
CNC(=O)c1cnc(NC(=O)C2CC2)cc1Nc1cccc(-c2ncn(C)n2)c1OC [Example 30],0.01,0.03,6.17,,
[2H]C([2H])([2H])NC(=O)c1cnc(NC(=O)C2CC2)cc1Nc1cccc(-c2ccnn2C)c1OC [Example 35],0.28,0.06,40,,
CNC(=O)c1cnc(NC(=O)Cc2ccccc2)cc1Nc1ccccc1S(C)(=O)=O [Example 6],1.11,1.16,120,,
CNC(=O)c1cnc(NC(=O)C2CC2)cc1Nc1cccc(-c2nnc(C)o2)c1OC [Example 28],0.04,0.07,10,,
CNC(=O)c1cnc(NC(=O)C2CC2F)cc1Nc1ccccc1S(C)(=O)=O (stereo not shown) [Example 22],1.24,2.12,80,,
CNC(=O)c1cnc(NC(=O)Nc2ccccc2)cc1Nc1ccccc1S(C)(=O)=O [Example 27],,,290,3.06,3.17
CCNC(=O)Nc1cc(Nc2ccccc2S(C)(=O)=O)c(C(=O)NC)cn1 [Example 16],3.37,12.5,90,,
CNC(=O)c1cnc(NC(=O)C2CC2)cc1Nc1cccc(F)c1S(C)(=O)=O [Example 18],9.91,6.61,540,,
CNC(=O)c1cnc(NC(=O)C2CC2)cc1Nc1ccccc1C(C)(C)O [Example 19],8.51,5.69,720,,
CNC(=O)c1cnc(NC(=O)Cc2ccc(OC)cc2)cc1Nc1ccccc1S(C)(=O)=O [Example 12],0.58,4.42,230,,
CNC(=O)c1cnc(NC(=O)C2CC2)cc1Nc1ccc(F)cc1S(C)(=O)=O [Example 15],0.34,0.69,50,,
CNC(=O)c1cnc(NC(=O)Cc2ccccn2)cc1Nc1ccccc1S(C)(=O)=O [Example 10],6.03,4.55,380,,
CNC(=O)c1cnc(NC(=O)C2CC2)cc1Nc1cccc(-c2ccnn2C)c1OC [Example 33],0.09,0.11,5.34,,
[2H]C([2H])([2H])NC(=O)c1cnc(NC(=O)C2CC2)cc1Nc1cccc(-c2ccn(CC(C)(C)O)n2)c1OC [Example 40],0.16,0.17,3.86,,
[2H]C([2H])([2H])NC(=O)c1cnc(NC(=O)C2CC2)cc1Nc1cccc(-c2ccn(CCC#N)n2)c1OC [Example 41],,,2.74,0.09,0.19
[2H]C([2H])([2H])NC(=O)c1cnc(NC(=O)C2CC2)cc1Nc1cccc(-c2ccn(CC(F)F)n2)c1OC [Example 36],0.04,0.1,4.2,,
[2H]C([2H])([2H])NC(=O)c1cnc(NC(=O)C2CC2)cc1Nc1cccc(-c2csc(C)n2)c1OC [Example 45],0.01,0.01,5.56,,
CNC(=O)c1cnc(NC(=O)C2CCOCC2)cc1Nc1ccccc1S(C)(=O)=O [Example 4],12.5,2.09,760,,
CNC(=O)c1cnc(NC(=O)C2CCCCC2)cc1Nc1ccccc1S(C)(=O)=O [Example 5],8.93,1.88,800,,

SMILES,"IC50 [1, 4] [µM]","IC50 [2, 5] [µM]",EC50 [3] [nM],"IC50 [1, 6] [µM]","IC50 [2, 7] [µM]"
CNC(=O)c1cnc(NC(=O)[C@@H]2CCCO2)cc1Nc1ccccc1S(C)(=O)=O [Example 3],12.5,6.52,830,,
CNC(=O)c1cnc(NC(C)=O)cc1Nc1ccc(F)c(F)c1OC [Example 24],7.24,11.2,420,,
CNC(=O)c1cnc(NC(=O)C2CC2)cc1Nc1cccc(-c2ccn(C)n2)c1OC [Example 32],0.00705,0.00731,1.63,,
CNC(=O)c1cnc(NC(=O)[C@H]2CC2(C)C)cc1Nc1ccccc1S(C)(=O)=O [Example 8],1,4.68,250,,
[2H]C([2H])([2H])NC(=O)c1cnc(NC(=O)C2CC2)cc1Nc1cccc(-c2cnn(C)c2)c1OC [Example 43],0.02,0.06,2.54,,
CNC(=O)c1cnc(NC(=O)C2CC2)cc1Nc1cccc(-c2cnn(C)c2)c1OC [Example 42],0.02,0.05,7.19,,
CNC(=O)Nc1cc(Nc2ccccc2S(C)(=O)=O)c(C(=O)NC)cn1 [Example 17],9.54,11.4,200,,
[2H]C([2H])([2H])NC(=O)c1cnc(NC(=O)C2CC2)cc1Nc1cccc(-c2ccn(C)n2)c1OC [Example 34],0.00873,0.02,6.42,,
CNC(=O)c1cnc(NC(=O)C2CC2)cc1Nc1ccc(F)c(F)c1OC [Example 25],0.1,0.23,40,,
CNC(=O)c1cnc(NC(=O)C(C)C)cc1Nc1ccccc1S(C)(=O)=O [Example 7],4.21,0.4,460,,
CNC(=O)c1cnc(NC(C)=O)cc1Nc1ccccc1S(C)(=O)=O [Example 2],12.5,7.06,430,,
CNC(=O)c1cnc(NC(=O)COC)cc1Nc1ccc(F)c(F)c1OC [Example 23],3.89,12.5,1020,,
CNC(=O)c1cnc(NC(=O)C2CC2)cc1Nc1cccc(-c2nnc[nH]2)c1OC [Example 29],0.03,0.02,5.46,,
[2H]C([2H])([2H])NC(=O)c1cnc(NC(=O)C2CC2)cc1Nc1cccc(-c2ccn(CC)n2)c1OC [Example 37],0.07,0.12,3.52,,
CNC(=O)c1cnc(NC(=O)C2CCC2)cc1Nc1ccccc1S(C)(=O)=O [Example 14],0.87,3.15,170,,
CNC(=O)c1cnc(NC(=O)C2CC2(F)F)cc1Nc1ccccc1S(C)(=O)=O (stereo not shown) [Example 21],1.85,2.26,140,,
CNC(=O)c1cnc(NC(=O)C2CC2)cc1Nc1ccccc1S(C)(=O)=O [Example 1],0.24,0.3,20,,
[2H]C([2H])([2H])NC(=O)c1cnc(NC(=O)C2CC2)cc1Nc1cccc(-c2ccn(CC(F)(F)F)n2)c1OC [Example 39],,,20,0.16,0.08
CNC(=O)c1cnc(NC(=O)C2CCCc3ccccc32)cc1Nc1ccccc1S(C)(=O)=O (stereo not shown) [Example 9],,,940,2.56,13.3
[2H]C([2H])([2H])NC(=O)c1cnc(NC(=O)C2CC2)cc1Nc1cccc(-c2ncn(C)n2)c1OC [Example 31],0.01,0.00478,3.81,,
[2H]C([2H])([2H])NC(=O)c1cnc(NC(=O)C2CC2)cc1Nc1cccc(-c2ccnn2CC)c1OC [Example 38],1.66,1.52,160,,
CCCC(=O)Nc1cc(Nc2ccccc2S(C)(=O)=O)c(C(=O)NC)cn1 [Example 11],2.49,2.95,240,,
